Data reported in ChEMBL document CHEMBL5500348, “Novel 6-alkyl-bridged 4-arylalkylpiperazin-1-yl derivatives of azepino[4,3-b]indol-1(2H)-one as potent BChE-selective inhibitors showing protective effects against neurodegenerative insults” (Eur J Med Chem, 2024).
Converted amounts (≈) assume the structure as drawn. The source made the active and inactive calls. The calls are words filed in the database; no cut-off is given here.

Assays:
[1] = target: Amyloid-beta precursor protein (Homo sapiens) (UniProt P05067); test: Inhibition of amyloid beta (unknown origin) aggregation at 100 uM relative to control
Albumin = Albumin (Homo sapiens, UniProt P02768); test: Binding affinity to human serum albumin assessed as equilibrium dissociation constant by SPR analysis; assay type: ADME
serum albumin [2] = target: T1, serum albumin (Homo sapiens, UniProt P02768); test: Binding affinity to human serum albumin assessed as dissociation rate constant (Koff) by SPR analysis; assay type: ADME; conditions: read-out: K
serum albumin [3] = target: T1, serum albumin; test: Binding affinity to human serum albumin assessed as residence time by SPR analysis; assay type: ADME
Acetylcholinesterase = Acetylcholinesterase (Electrophorus electricus, UniProt O42275); test: Inhibition of electric eel AChE using acetylthiocholine iodide as substrate preincubated for 20 mins followed by substrate addition and measured after 10 mins by DTNB-reagent based Ellman's method
Cholinesterase [4] = target: T2, Cholinesterase (Equus caballus, UniProt P81908); test: Inhibition of equine serum BuChE using butyrylthiocholine iodide as substrate preincubated for 20 mins followed by substrate addition and measured after 10 mins by DTNB based Ellman's method
[5] = target: Acetylcholinesterase (Electrophorus electricus) (UniProt O42275); test: Inhibition of electric eel AChE using acetylthiocholine iodide as substrate at 20 uM preincubated for 20 mins followed by substrate addition and measured after 10 mins by DTNB-reagent based Ellman's method relative to control; conditions: time 30.0 min
Cholinesterase [6] = target: T3, Cholinesterase (Homo sapiens, UniProt P06276); test: Inhibition of human BuChE using butyrylthiocholine iodide as substrate preincubated for 20 mins followed by substrate addition and measured after 10 mins by DTNB based Ellman's method
[7] = target: Acetylcholinesterase (Homo sapiens) (UniProt P22303); test: Inhibition of human AChE using acetylthiocholine iodide as substrate at 20 uM preincubated for 20 mins followed by substrate addition and measured after 10 mins by DTNB-reagent based Ellman's method relative to control; conditions: time 30.0 min
[8] = target: Amyloid-beta precursor protein (Homo sapiens) (UniProt P05067); test: Inhibition of self induced amyloid-beta (1 to 40) (unknown origin) aggregation at 100 uM incubated for 2 hrs by ThT fluorescence based spectrofluorimetric analysis relative to control
SH-SY5Y [9] = test: Cytoprotective activity against H2O2-induced oxidative stress in human SH-SY5Y cells assessed as increase in cell viability incubated for 24 hrs by MTT assay; assay type: functional, cell-based
[10] = Cytotoxicity against human SH-SY5Y cells assessed as reduction in cell viability incubated for 24 hrs by MTT assay; assay type: toxicity, cell-based
SH-SY5Y [11] = test: Protection against NMDA-induced cytotoxicity in human SH-SY5Y cells assessed as increase in cell viability at 1 uM incubated for 24 hrs by MTT assay; assay type: functional, cell-based
SH-SY5Y [12] = test: Protection against NMDA-induced cytotoxicity in human SH-SY5Y cells assessed as increase in cell viability at 5 to 20 uM incubated for 24 hrs by MTT assay; assay type: functional, cell-based; conditions: dose 5-20 µM
equine serum BuChE = test: Selectivity ratio of IC50 for cytotoxicity against human SH-SY5Y cells to IC50 for inhibition of equine serum BuChE using butyrylthiocholine iodide as substrate; assay type: toxicity, cell-based; conditions: probe butyrylthiocholine iodide, read-out: Ratio IC50
[13] = Antioxidant activity assessed as ROS scavenging activity relative to control; assay type: functional
[14] = Aqueous solubility of compound in phosphate buffered solution at pH 7.4 incubated for 1 hr under shaking condition by HPLC analysis; assay type: physicochemical
Cholinesterase [15] = target: T2, Cholinesterase
Description: Binding affinity to equine BChE in phosphate buffer at pH 8 assessed as equilibrium dissociation constant by SPR analysis

SH-SY5Y [16] = test: Cytoprotective activity against H2O2-induced oxidative stress in human SH-SY5Y cells assessed as increase in cell viability at 100 uM incubated for 24 hrs by MTT assay; assay type: functional, cell-based
[17] = target: Acetylcholinesterase (Homo sapiens) (UniProt P22303); test: Inhibition of AChE (unknown origin) at 10 uM relative to control
Cholinesterase [18] = target: T3, Cholinesterase; test: Inhibition of BChE (unknown origin) at 10 uM relative to control
[19] = target: Cholinesterase (Equus caballus) (UniProt P81908); test: Mixed-type inhibition of equine serum BChE using varying concentrations of butyrylthiocholine iodide as substrate assessed as change in Km and Vmax at 0.05 to 0.5 uM by Lineweaver-Burk plot analysis; conditions: dose 0.05-0.5 µM
Cholinesterase [20] = target: T2, Cholinesterase; test: Mixed-type inhibition of equine serum BChE using varying concentrations of butyrylthiocholine iodide as substrate assessed as inhibition constant by Lineweaver-Burk plot analysis
SH-SY5Y [21] = test: Cytoprotective activity against H2O2-induced oxidative stress in human SH-SY5Y cells assessed as increase in cell viability at 20 uM incubated for 24 hrs by MTT assay; assay type: functional, cell-based
[22] = target: Cholinesterase (Equus caballus) (UniProt P81908); test: Inhibition of equine serum BuChE using butyrylthiocholine iodide as substrate at 20 uM preincubated for 20 mins followed by substrate addition and measured after 10 mins by DTNB based Ellman's method relative to control; conditions: time 30.0 min

T1 sequence (P02768 whole entry): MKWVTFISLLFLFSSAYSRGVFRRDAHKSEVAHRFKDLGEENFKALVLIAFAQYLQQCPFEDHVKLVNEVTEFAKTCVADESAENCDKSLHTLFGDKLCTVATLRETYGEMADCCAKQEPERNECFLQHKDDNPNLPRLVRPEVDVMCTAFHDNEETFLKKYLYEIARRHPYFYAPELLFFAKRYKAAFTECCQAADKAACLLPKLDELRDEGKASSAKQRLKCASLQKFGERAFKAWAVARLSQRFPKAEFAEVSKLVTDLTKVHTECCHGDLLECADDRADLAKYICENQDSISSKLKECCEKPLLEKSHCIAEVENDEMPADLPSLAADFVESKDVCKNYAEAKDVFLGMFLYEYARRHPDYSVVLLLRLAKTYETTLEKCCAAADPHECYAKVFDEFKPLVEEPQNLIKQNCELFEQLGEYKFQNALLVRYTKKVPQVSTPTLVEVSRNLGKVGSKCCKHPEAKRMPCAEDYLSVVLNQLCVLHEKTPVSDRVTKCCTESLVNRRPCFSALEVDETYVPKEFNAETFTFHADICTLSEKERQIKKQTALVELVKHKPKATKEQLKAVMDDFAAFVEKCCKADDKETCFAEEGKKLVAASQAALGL
Chain of Albumin (P02768 whole entry): as above
Chain of Acetylcholinesterase (Homo sapiens) (P22303 whole entry): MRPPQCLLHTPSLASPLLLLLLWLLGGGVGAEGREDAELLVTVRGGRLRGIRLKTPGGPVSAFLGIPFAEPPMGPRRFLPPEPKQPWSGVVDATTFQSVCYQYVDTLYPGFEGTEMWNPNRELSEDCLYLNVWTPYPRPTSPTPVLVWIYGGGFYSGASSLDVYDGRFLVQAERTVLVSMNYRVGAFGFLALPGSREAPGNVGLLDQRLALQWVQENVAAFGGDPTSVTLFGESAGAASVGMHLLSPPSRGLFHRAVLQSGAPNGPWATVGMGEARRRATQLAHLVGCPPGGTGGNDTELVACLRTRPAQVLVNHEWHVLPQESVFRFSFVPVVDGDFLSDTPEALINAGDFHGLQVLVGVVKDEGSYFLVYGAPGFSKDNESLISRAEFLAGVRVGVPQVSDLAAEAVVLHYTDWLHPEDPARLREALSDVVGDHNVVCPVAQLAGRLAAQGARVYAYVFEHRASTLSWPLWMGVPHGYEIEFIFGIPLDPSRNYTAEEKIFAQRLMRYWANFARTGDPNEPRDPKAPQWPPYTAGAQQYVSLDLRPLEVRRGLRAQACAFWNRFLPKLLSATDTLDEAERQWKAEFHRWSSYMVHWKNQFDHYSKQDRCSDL
T3 sequence (P06276 whole entry): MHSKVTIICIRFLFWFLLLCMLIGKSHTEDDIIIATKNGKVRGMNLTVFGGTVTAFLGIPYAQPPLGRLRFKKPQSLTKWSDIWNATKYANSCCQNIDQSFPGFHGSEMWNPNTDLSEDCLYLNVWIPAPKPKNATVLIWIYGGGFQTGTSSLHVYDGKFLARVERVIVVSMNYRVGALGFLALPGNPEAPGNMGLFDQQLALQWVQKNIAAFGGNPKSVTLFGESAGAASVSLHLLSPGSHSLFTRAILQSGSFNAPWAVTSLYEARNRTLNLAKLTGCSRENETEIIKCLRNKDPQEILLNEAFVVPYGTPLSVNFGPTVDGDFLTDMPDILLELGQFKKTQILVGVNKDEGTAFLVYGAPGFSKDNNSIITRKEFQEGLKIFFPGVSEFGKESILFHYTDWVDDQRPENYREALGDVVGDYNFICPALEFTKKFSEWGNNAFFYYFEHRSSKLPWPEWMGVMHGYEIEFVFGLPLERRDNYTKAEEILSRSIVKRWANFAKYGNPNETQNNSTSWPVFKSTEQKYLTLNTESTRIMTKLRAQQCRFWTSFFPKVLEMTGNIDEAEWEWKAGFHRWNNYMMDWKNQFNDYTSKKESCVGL
Chain of Acetylcholinesterase (Electrophorus electricus) (O42275 24-633 limits assumed): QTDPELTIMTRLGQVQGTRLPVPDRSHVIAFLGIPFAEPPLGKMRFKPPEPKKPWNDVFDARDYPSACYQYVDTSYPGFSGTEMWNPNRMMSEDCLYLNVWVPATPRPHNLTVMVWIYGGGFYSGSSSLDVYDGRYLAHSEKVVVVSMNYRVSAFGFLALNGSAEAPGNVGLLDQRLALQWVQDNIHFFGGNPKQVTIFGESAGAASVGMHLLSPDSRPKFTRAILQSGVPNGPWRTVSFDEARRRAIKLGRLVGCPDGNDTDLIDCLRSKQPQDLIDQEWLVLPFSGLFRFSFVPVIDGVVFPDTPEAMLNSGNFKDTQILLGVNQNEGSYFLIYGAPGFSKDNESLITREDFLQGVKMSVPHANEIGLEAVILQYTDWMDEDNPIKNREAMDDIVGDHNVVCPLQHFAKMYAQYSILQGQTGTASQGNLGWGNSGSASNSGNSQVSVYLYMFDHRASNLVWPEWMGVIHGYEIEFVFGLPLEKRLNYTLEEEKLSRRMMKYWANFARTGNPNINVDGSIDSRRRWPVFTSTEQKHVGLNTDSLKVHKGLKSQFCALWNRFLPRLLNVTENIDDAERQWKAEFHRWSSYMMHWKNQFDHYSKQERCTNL
T2 sequence (P81908 whole entry): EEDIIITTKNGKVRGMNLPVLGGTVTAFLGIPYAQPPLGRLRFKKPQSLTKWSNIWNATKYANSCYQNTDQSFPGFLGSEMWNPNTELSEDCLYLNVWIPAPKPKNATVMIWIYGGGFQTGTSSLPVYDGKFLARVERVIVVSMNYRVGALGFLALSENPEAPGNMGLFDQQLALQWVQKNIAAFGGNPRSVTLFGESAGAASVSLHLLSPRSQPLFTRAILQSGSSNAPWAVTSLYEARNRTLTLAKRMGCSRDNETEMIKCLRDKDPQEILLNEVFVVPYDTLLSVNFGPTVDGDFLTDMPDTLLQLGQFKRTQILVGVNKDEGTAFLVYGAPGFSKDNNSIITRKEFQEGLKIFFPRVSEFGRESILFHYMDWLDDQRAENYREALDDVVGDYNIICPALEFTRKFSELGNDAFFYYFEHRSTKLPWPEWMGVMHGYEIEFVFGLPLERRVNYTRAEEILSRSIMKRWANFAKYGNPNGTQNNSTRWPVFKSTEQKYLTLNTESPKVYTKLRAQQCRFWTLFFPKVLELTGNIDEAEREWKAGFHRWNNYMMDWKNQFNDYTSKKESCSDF
Chain of Amyloid-beta precursor protein (Homo sapiens) (P05067 whole entry): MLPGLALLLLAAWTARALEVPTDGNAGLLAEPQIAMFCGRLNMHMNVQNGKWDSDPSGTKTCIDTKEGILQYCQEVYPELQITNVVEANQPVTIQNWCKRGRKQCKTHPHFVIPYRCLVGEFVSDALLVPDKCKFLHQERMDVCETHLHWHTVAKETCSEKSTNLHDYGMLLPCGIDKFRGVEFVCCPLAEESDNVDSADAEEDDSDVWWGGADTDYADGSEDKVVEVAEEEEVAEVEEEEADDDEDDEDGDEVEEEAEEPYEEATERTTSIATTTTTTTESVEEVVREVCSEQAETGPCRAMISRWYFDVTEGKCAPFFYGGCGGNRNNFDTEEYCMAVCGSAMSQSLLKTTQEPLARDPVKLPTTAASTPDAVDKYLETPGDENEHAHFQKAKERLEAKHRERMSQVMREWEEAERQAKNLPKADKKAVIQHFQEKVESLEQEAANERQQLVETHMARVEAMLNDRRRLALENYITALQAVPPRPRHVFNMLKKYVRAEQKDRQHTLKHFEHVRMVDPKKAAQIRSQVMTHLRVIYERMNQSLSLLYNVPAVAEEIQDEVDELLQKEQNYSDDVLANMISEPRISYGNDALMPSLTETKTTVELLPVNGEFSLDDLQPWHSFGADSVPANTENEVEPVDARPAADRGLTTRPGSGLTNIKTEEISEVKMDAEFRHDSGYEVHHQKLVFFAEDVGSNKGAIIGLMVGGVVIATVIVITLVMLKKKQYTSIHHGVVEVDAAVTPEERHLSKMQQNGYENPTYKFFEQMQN
Chain of Acetylcholinesterase (O42275 whole entry): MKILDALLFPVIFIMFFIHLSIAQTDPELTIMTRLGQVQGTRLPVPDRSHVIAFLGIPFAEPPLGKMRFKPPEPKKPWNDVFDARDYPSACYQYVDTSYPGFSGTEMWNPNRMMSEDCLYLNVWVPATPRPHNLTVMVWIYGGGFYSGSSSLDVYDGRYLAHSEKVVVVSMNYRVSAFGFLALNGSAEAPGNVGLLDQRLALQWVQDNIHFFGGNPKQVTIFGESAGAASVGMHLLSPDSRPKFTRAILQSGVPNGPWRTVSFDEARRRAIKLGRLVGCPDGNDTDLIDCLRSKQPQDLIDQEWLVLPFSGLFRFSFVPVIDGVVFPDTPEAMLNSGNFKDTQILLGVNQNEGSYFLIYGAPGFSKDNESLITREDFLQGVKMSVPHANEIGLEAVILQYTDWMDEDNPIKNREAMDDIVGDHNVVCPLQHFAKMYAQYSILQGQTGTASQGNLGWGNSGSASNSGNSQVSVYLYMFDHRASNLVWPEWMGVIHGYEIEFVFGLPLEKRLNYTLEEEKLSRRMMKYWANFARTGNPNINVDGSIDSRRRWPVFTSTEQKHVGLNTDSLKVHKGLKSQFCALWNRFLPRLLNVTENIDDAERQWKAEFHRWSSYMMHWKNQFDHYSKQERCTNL
Chain of Cholinesterase (Equus caballus) (P81908 whole entry): as the sequence (P81908 whole entry) above

Compound: O=C1NCCCc2c1c1ccccc1n2CCc1ccccc1
- inhibition [1]: < 40%
- Kd (Albumin): 850 nM
- koff (serum albumin [2]): 0.017 s⁻¹
- residence time (serum albumin [3]): 1 min

Compound: O=C1NCCCc2c1c1ccccc1n2CCCCCCCN1CCN(Cc2ccccc2)CC1
- IC50 (Acetylcholinesterase): 402 nM
- IC50 (Cholinesterase [4]): 396 nM

Compound: O=C1NCCCc2c1c1ccccc1n2CCCCCN1CCN(CCc2ccccc2)CC1
- IC50 (Cholinesterase [4]): 163 nM
- inhibition [5]: 39%
- IC50 (Cholinesterase [6]): 190 nM
- inhibition [7]: 20%
- inhibition [8]: 14%
- EC50 (SH-SY5Y [9]): ~1500 nM
- Activity (SH-SY5Y [9]; dose 1-20 µM): Dose-Dependent Effect
- IC50 at 24 h [10]: 88000 nM
- Activity (SH-SY5Y [11]): Active
- Activity (SH-SY5Y [12]): inactive
- selectivity ratio (equine serum BuChE): 500
- Activity [13]: < 10%
- Kd (Albumin): 6700 nM
- koff (serum albumin [2]): 0.092 s⁻¹
- residence time (serum albumin [3]): 0.183 min
- solubility at 1 h [14]: 169 µg/mL (≈ 368 µM)
- Kd (Cholinesterase [15]): 148 nM

Compound: O=C1NCCCc2c1c1ccccc1n2CCCCCCCN1CCN(Cc2cccnc2)CC1
- IC50 (Cholinesterase [4]): 466 nM
- inhibition [5]: 40%

Compound: O=C1NCCCc2c1c1ccccc1n2CCCCCN1CCN(c2ccccc2)CC1
- IC50 (Cholinesterase [4]): 5520 nM
- inhibition [5]: 31%

Compound: O=C1NCCCc2c1c1ccccc1n2CCCCCCCN1CCN(c2ccc(F)cc2)CC1
- IC50 (Cholinesterase [4]): 10000 nM
- inhibition [5]: 10%

Compound: O=c1c(O)c(-c2ccc(O)c(O)c2)oc2cc(O)cc(O)c12
- Activity (SH-SY5Y [16]): Active

Compound: O=C1NCCCc2c1c1ccccc1n2CCCCCCCN1CCN(c2ccccc2)CC1
- IC50 (Cholinesterase [4]): 765 nM
- inhibition [5]: 17%
- Kd (Albumin): 1640 nM
- koff (serum albumin [2]): 0.069 s⁻¹
- residence time (serum albumin [3]): 0.25 min
- Kd (Cholinesterase [15]): 759 nM

Compound: O=C1NCCCc2c1c1ccccc1n2CCCCCN1CCN(c2ccccn2)CC1
- IC50 (Cholinesterase [4]): 717 nM
- inhibition [5]: 13%

Compound: O=C1NCCCc2c1c1ccccc1n2CCCCCCCN1CCN(c2ccccn2)CC1
- IC50 (Acetylcholinesterase): 9100 nM
- IC50 (Cholinesterase [4]): 2100 nM

Compound: CN1CCN(CCCCCCCn2c3c(c4ccccc42)C(=O)NCCC3)CC1
- IC50 (Acetylcholinesterase): 15000 nM
- IC50 (Cholinesterase [4]): 10000 nM

Compound: CC(C)NCCCn1c2c(c3ccccc31)C(=O)NCCC2
- inhibition [1]: 50%
- inhibition [17]: < 40%
- inhibition (Cholinesterase [18]): < 40%

Compound: O=C1NCCCc2c1c1ccccc1n2CCCCN1CCN(CCc2ccccc2)CC1
- IC50 (Cholinesterase [4]): 528 nM
- inhibition [5]: 36%
- inhibition [8]: 21%

Compound: O=C1NCCCc2c1c1ccccc1n2CCCCCN1CCN(Cc2ccccc2)CC1
- IC50 (Acetylcholinesterase): 1830 nM
- IC50 (Cholinesterase [4]): 430 nM
- inhibition [8]: 28%

Compound: O=C1NCCCc2c1c1ccccc1n2CCCCCN1CCN(c2ccc(F)cc2)CC1
- IC50 (Cholinesterase [4]): 1780 nM
- inhibition [5]: 28%

Compound: O=C1NCCCc2c1c1ccccc1n2CCCCCN1CCN(Cc2cccnc2)CC1
- IC50 (Cholinesterase [4]): 4920 nM
- inhibition [5]: 37%

Compound: O=C1NCCCc2c1c1ccccc1n2CCCCCN1CCN(Cc2ccncc2)CC1
- IC50 (Cholinesterase [4]): 1920 nM
- inhibition [5]: 2%

Compound: O=C1NCCCc2c1c1ccccc1n2CCCCCN1CCN(c2ccccc2F)CC1
- IC50 (Cholinesterase [4]): 1000 nM
- inhibition [5]: 35%

Compound: O=C1NCCCc2c1c1ccccc1n2CCCCCCCN1CCN(CCc2ccccc2)CC1
- IC50 (Acetylcholinesterase): 5900 nM
- IC50 (Cholinesterase [4]): 65 nM
- IC50 (Cholinesterase [6]): 72 nM
- inhibition [7]: 39%
- inhibition [19]: Active
- Ki (Cholinesterase [20]): 27 nM
- inhibition [8]: 62%
- IC50 at 24 h [10]: 60000 nM
- Activity (SH-SY5Y [11]): Active
- Activity (SH-SY5Y [12]): inactive
- selectivity ratio (equine serum BuChE): 800
- Activity (SH-SY5Y [21]): inactive
- Activity [13]: < 10%
- Kd (Albumin): 3530 nM
- koff (serum albumin [2]): 0.151 s⁻¹
- residence time (serum albumin [3]): 0.1 min
- solubility at 1 h [14]: 6.1 µg/mL (≈ 12.5 µM)
- Kd (Cholinesterase [15]): 62 nM

Compound: O=C1NCCCc2c1c1ccccc1n2CCCCN1CCN(Cc2ccccc2)CC1
- IC50 (Acetylcholinesterase): 1480 nM
- IC50 (Cholinesterase [4]): 2640 nM

Compound: O=C1NCCCc2c1c1ccccc1n2CCN1CCN(Cc2ccccc2)CC1
- IC50 (Acetylcholinesterase): 6570 nM
- IC50 (Cholinesterase [4]): 6590 nM
- inhibition [8]: 13%

Compound: O=C1NCCCc2c1c1ccccc1n2CCN1CCN(CCc2ccccc2)CC1
- IC50 (Cholinesterase [4]): 5790 nM
- inhibition [5]: 8%
- inhibition [8]: 55%

Compound: O=C1NCCCc2c1c1ccccc1n2CCCCCCCN1CCN(Cc2ccncc2)CC1
- IC50 (Acetylcholinesterase): 7060 nM
- IC50 (Cholinesterase [4]): 1860 nM

Compound: O=C1NCCCc2c1c1ccccc1n2CCCCCCCN1CCN(c2ccccc2F)CC1
- IC50 (Acetylcholinesterase): 4940 nM
- IC50 (Cholinesterase [4]): 906 nM

Compound: CN1CCN(CCCCCn2c3c(c4ccccc42)C(=O)NCCC3)CC1
- inhibition [5]: 20%
- inhibition [22]: 20%
